We go through 11 compounds from ChEMBL document CHEMBL5236616, “Chlorinated Naringenin Analogues as Potential Inhibitors of Transthyretin Amyloidogenesis” (J Med Chem, 2022).

Data set [1] deals with Transthyretin (Homo sapiens) (UniProt P02766). Put plainly: Displacement of (E)-S-phenyl 3(4-hydroxy-3,5-dimethylstyryl)benzothioate from human plasma TTR at 20 uM incubated for 6 hrs by fluorescence based assay. Format: cell-free.
The test system of data set [2] is Transthyretin (Homo sapiens), P02766 [V50M]. Description: Inhibition of acid mediated TTR V30M mutant aggregation (unknown origin) expressed in Escherichia coli preincubated for 30 mins followed by acid stimulation and measured after 96 hrs by fluorescence spectrophotometer analysis. The following applies: time 96.5 hrs.
The next data set deals with Transthyretin (Homo sapiens, UniProt P02766, V50M). Put plainly: Binding affinity to TTR V30M mutant (unknown origin) expressed in Escherichia coli by ITC assay.
For data set [3], the system named is Transthyretin (Homo sapiens), P02766 [V50M]. Description: Binding affinity to TTR V30M mutant (unknown origin) expressed in Escherichia coli assessed as gibbs free energy change by ITC assay.
Data set [4] has the same test system. Description: Binding affinity to TTR V30M mutant (unknown origin) expressed in Escherichia coli assessed as change in enthalpy by ITC assay.
The test system is the same in data set [5]. Put plainly: Binding affinity to TTR V30M mutant (unknown origin) expressed in Escherichia coli assessed as change in entropy by ITC assay.
Data set [6] can be described thus: Aqueous solubility of compound at pH 1.2 incubated for 4 hrs. Format: physicochemical. The following applies: aqueous medium.
Data set [7] in a line: Aqueous solubility of compound at pH 6.8 incubated for 4 hrs. Format: physicochemical. The conditions noted are these: aqueous medium.
Data set [8] in a line: Permeability of compound at 10 uM after 4 hrs by LC-MS/MS based PAMPA. The data set is classed as ADME. The conditions noted are these: read-out: permeability.
A short description of data set [9]: Plasma protein binding in rat assessed as unbound fraction at 1 uM incubated for 4 hrs by rapid equilibrium dialysis method. Format: ADME, cell-free.
Data set [10] is described as follows: Drug concentration in Sprague-Dawley rat plasma at 1 mg/kg, iv after 8 hrs by LC-MS/MS anlaysis. Format: ADME, organism-based.
A short description of data set [11]: Drug concentration in Sprague-Dawley rat plasma at 1 mg/kg, po after 8 hrs by LC-MS/MS anlaysis. Format: ADME, organism-based.
A short description of data set [12]: Drug concentration in Sprague-Dawley rat eye ball at 1 mg/kg, iv after 8 hrs by LC-MS/MS anlaysis. The conditions noted are these: read-out: Ct. Format: ADME, organism-based, Eyeball of camera-type eye.
Data set [13] can be described thus: Drug concentration in Sprague-Dawley rat eye ball at 1 mg/kg, po after 8 hrs by LC-MS/MS anlaysis. The data set is classed as ADME, organism-based, Eyeball of camera-type eye. The conditions noted are these: read-out: Ct.
Data set [14] can be described thus: Drug concentration in Sprague-Dawley rat brain at 1 mg/kg, iv after 8 hrs by LC-MS/MS anlaysis. Format: ADME, organism-based. The following applies: read-out: Ct.
A short description of data set [15]: Drug concentration in Sprague-Dawley rat brain at 1 mg/kg, po after 8 hrs by LC-MS/MS anlaysis. Format: ADME, organism-based. The following applies: read-out: Ct.
Data set [16] is described as follows: Ratio of drug concentration in Sprague-Dawley rat eye ball to plasma at 1 mg/kg, iv after 8 hrs by LC-MS/MS analysis. The data set is classed as ADME, organism-based.
The nature of data set [17]: Ratio of drug concentration in Sprague-Dawley rat eye ball to plasma at 1 mg/kg, po after 8 hrs by LC-MS/MS analysis. Format: ADME, organism-based.
The nature of data set [18]: Ratio of drug concentration in Sprague-Dawley rat brain to plasma at 1 mg/kg, iv after 8 hrs by LC-MS/MS analysis. The data set is classed as ADME, organism-based.
Data set [19] is described as follows: Ratio of drug concentration in Sprague-Dawley rat brain to plasma at 1 mg/kg, po after 8 hrs by LC-MS/MS analysis. Format: ADME, organism-based.
Data set [20] in a line: Drug concentration in rat plasma at 1.82 mg/kg, po. Format: ADME, organism-based. The following applies: in vivo.

Values after ≈ are worked out from the molar mass of the structure shown. Active and inactive are the calls of the source. No cut-off for these calls is given here.

Consider `O=C1CC(c2ccc(O)c(Cl)c2)Oc2cc(O)cc(O)c21` (stereo not given), for which the outcome in [1] was Active. For the same compound, in [2], the IC50 is 5.3 µM. In addition, on Transthyretin, the affinity, expressed as Kd, was 0.403 µM. Moreover, the deltaG in [3] is -8.73 kcal/mol. Moreover, the deltaH in data set [4] is -13.2 kcal/mol. Further, in [5], the TdeltaS amounted to 4.47 kcal/mol.
On to `O=C1CC(c2cc(Cl)c(O)c(Cl)c2)Oc2cccc(O)c21` (stereo not given), for which, in data set [1], the outcome was Active. The compound also displayed an IC50 in data set [2] of 3.6 µM. This compound also had a Kd at Transthyretin of 0.013 µM. Moreover, the deltaG in [3] is -10.9 kcal/mol. The deltaH in data set [4] was -8.61 kcal/mol. Also, the TdeltaS in data set [5] is -2.28 kcal/mol.
On to `O=C1CC(c2cc(Cl)cc(Cl)c2)Oc2cc(O)cc(O)c21` (stereo not given), for which, in data set [1], the result was Active. In addition, inhibition in data set [2] was half-maximal at 3.8 µM (IC50). The same compound yielded a Kd on Transthyretin of 0.006 µM. Also, the deltaG in data set [3] is -13.6 kcal/mol. The deltaH in data set [4] is -7.42 kcal/mol. For the same compound, the TdeltaS in [5] is -6.17 kcal/mol.
With `O=C1CC(c2cc(Cl)c(O)c(Cl)c2)Oc2cc(O)cc(O)c21` (stereo not given), in data set [1], the outcome was Active. The IC50 in [2] is 3.7 µM. Besides, the Kd on Transthyretin came to 0.016 µM. Moreover, the deltaG in data set [3] is -10.7 kcal/mol. In addition, the deltaH in data set [4] was -16.7 kcal/mol. Moreover, the TdeltaS in data set [5] amounted to 6 kcal/mol. For the same compound, the solubility at 4 h in data set [6] worked out at 0.66 µM (≈ 0.225 µg/mL); in data set [7], 28.3 µM (≈ 9.65 µg/mL). The Papp at 4 h, 10 µM in data set [8] was greater than 50 ×10⁻⁶ cm/s. In addition, the Fu in data set [9] amounted to 0.081%. The concentration at 8 h came out at 717 nM in [10]; 267 nM in data set [11]; 150 nM in data set [12]; 37.1 nM in data set [13]; 53.1 nM in [14]; 15.6 nM in [15]. In addition, the Kp at 8 h in [16] was 0.209; in data set [17], 0.139; in [18], 0.074; in data set [19], 0.058.
With `O=C1CC(c2ccc(O)c(Cl)c2)Oc2cc(O)ccc21` (stereo not given), the IC50 in [2] turned out to be 6 µM.
Still for that read-out and setting: next, `O=C1CC(c2ccc(O)c(Cl)c2)Oc2ccc(O)cc21` (stereo not given): 5.9 µM; `O=C1CC(c2ccc(Cl)cc2)Oc2cc(O)cc(O)c21` (stereo not given): 15 µM.
Turning to `O=C1CC(c2cc(Cl)c(O)c(Cl)c2)Oc2cc(O)ccc21` (stereo not given), the outcome in data set [1] was Active. Half-maximal inhibition in data set [2] (IC50) was put at 4.6 µM. The Kd at Transthyretin was determined as 0.026 µM. In addition, the deltaG in data set [3] is -10.4 kcal/mol. The deltaH in [4] was -13.2 kcal/mol. In addition, the TdeltaS in [5] turned out to be 2.78 kcal/mol.
Compound `O=C1CC(c2cc(Cl)c(O)c(Cl)c2)Oc2ccc(O)cc21` (stereo not given) came in with a half-inhibitory concentration (IC50) in data set [2] of 4.3 µM.
Same read-out and setting: under `O=C1CC(c2ccc(O)c(Cl)c2)Oc2cccc(O)c21` (stereo not given) stands 7.2 µM.
Consider `O=C1C[C@@H](c2ccc(O)cc2)Oc2cc(O)cc(O)c21` [NARINGENIN], for which, in [20], the concentration is 1500 nM. In data set [2], this compound gave an IC50 of 12 µM. Moreover, at Transthyretin, the affinity, expressed as Kd, was 1.63 µM. Further, the deltaG in data set [3] was -7.9 kcal/mol. The deltaH in [4] was -10.9 kcal/mol. For the same compound, the TdeltaS in data set [5] came to 1.32 kcal/mol.
